{
  "source": "patent US8877163B2",
  "about": "“Cycloalkyl triamine pentacarboxylate as ligands for paramagnetic metal complexes” (Kaohsiung Medical University, priority 2006, dated 2014)",
  "key": {"[1]": {"conditions": "after removal of the galactopyranoside by β-gal; cited from earlier work"}, "[2]": {"assay": "Relaxivity r1 by 20 MHz relaxometer", "format": "physicochemical", "conditions": "37.0 ± 0.1° C., pH 7.4 ± 0.1", "text": "Mainly, the relaxivity of paramagnetic metal complex is affected by two factors, the inner-sphere and the outer-sphere relaxivities. Due to the existence of inner water molecules of the ligand of the present invention, the relaxivity thereof is mainly affected by the change of the inner-sphere relaxivity rather than the outer-sphere relaxivity (the outer-sphere relaxivity is considered similar to other ligands). The relaxivity of [Gd(CB-TTDA)]^2− is higher than those of [Gd(TTDA)]^2− (Y. M. Wang et al., Inorganic Chemistry, vol. 44, page 382, 2005) and [Gd(DTPA)]^2− (P. Caravan et al., Inorganic Chemistry, vol. 44, page 2170, 2001)."}, "[3]": {"assay": "Stability constants of the gadolinium complex by potentiometric titration (BEST program)", "format": "physicochemical", "text": "Presently, there are two ways for calculating the thermodynamic stability constant of a metal complex by the potentiometric titration. […] The second method is suitable for the metal complex whose disassociation rate is less than 25% at low pH (such as pH 2). Take the metal complex of the present invention for instance, since it is not able to form a complex with the ligand at a pH value around 2, the thermodynamic stability constant thereof must be calculated by the previous method. The equation for the thermodynamic stability constant is defined as follows: [formula] where M represents the metal ion, L represents the ligand, and ML represents the metal complex. […] The thermodynamic stability constants for the metal complexes with CB-TTDA are determined from the titration data with the FORTRAN computer program BEST as shown in Table 2 with the reported thermodynamic stability constants of TTDA and DTPA, which are respectively reported by Y M. Wang et al., Inorganic Chemistry, vol. 44, page 382, 2005 and by P. Caravan et al., Inorganic Chemistry, vol. 44, page 2170, 2001. The conditional stability constant (Kcond) specifies the degree of metal chelation at a given pH and is defined as follows: […] [formula] where LT is the total concentration of the uncomplexed ligand, which is defined by the following equation: […]"}, "[4]": {"assay": "Kinetic stability of the gadolinium complex toward zinc (II) transmetallation (relaxation rate ratio)", "format": "physicochemical", "conditions": "incubation with zinc (II) for three days; phosphate buffer pH 7.4, 2.5 mM ZnCl2, 2.5 mM complex; 20 MHz, 37.0 ± 0.1° C.", "text": "Among Zn^2+, Ca^2+, Cu^2+ and other metal ions, the zinc (II) combines a rather high concentration with high affinity toward poly(amino carboxylate) and may result in the gadolinium complex dissociation in vivo. […] The reciprocal of the longitudinal relaxation time is the water proton paramagnetic longitudinal relaxation rate, R1^P(t), where the ration of R1^P(t)|R1^P(0) represents the stability of the gadolinium complex for Zn^2+. […] Based on the mentioned principle, the kinetic stability of the gadolinium complex for zinc (II) could be measured. […] Laurent et al, Invest. Radiol., vol. 36, page 155, 2001."}, "[5]": {"conditions": "20 MHz, 37.0 ± 0.1° C., pH 7.6 ± 0.1; P. Caravan et al.; cited from earlier work"}, "[6]": {"conditions": "incubation with zinc (II) for three days; 20 MHz, 37.0 ± 0.1° C.; reported by S. Laurent et al; cited from earlier work"}, "human serum albumin": {"target": "human serum albumin (Homo sapiens, UniProt P02768)", "sequence (P02768 25-609)": "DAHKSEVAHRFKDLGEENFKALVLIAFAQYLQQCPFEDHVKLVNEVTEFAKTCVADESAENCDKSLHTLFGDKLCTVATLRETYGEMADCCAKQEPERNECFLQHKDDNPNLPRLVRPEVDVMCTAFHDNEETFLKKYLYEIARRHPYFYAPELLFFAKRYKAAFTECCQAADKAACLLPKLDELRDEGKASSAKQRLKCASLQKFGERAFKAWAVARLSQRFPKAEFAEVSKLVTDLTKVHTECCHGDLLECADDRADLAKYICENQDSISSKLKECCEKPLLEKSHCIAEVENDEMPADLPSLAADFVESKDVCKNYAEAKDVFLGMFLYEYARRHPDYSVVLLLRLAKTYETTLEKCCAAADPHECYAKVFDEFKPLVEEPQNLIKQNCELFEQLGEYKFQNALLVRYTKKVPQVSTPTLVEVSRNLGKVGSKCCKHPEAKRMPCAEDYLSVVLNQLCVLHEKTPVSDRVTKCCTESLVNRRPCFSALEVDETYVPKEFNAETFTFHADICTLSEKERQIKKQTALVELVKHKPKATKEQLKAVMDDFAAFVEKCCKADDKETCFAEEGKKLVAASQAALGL", "conditions": "bound to human serum albumin; cited from earlier work"}, "[7]": {"conditions": "cited from earlier work"}},
  "note": "Where two headings read alike, the source gives them in different places.",
  "data": [
    {"smiles": "O=C([O-])CN1CCN(CCO[C@@H]2O[C@H](CO)[C@H](O)[C@H](O)[C@H]2O)CCN(CC(=O)[O-])CCN(CC(=O)[O-])CC1.[Gd+3]", "note": "[Egad, 4,7,10-tri(aceticacid)-1-(2-β-galactopyranosylethoxy)-1,4,7,10-tetraazacyclododecane gadolinium (III)]", "values": [
      {"measurement": "number of inner space water molecules after hydrolysis by β-galactosidase", "setting": "[1]", "result": 1.2}
    ]},
    {"smiles": "O=C([O-])CN(CCN(CC(=O)[O-])CC1(CN(CC(=O)[O-])CC(=O)[O-])CCC1)CC(=O)[O-].[Gd+3]", "note": "[[Gd(CB-TTDA)]^2−]", "values": [
      {"measurement": "relaxivity r1", "setting": "[2]", "result": "4.12 ± 0.05", "unit": "mM⁻¹ s⁻¹"},
      {"measurement": "calculated conditional stability constant of the gadolinium complex", "setting": "[3]", "result": 15.83},
      {"measurement": "log KML [GdL]/[Gd][L] (thermodynamic stability constant)", "setting": "[3]", "result": 20.28},
      {"measurement": "R1^p (t = 3days)/R1^p (t = 0 days)", "setting": "[4]", "result": 47.4, "unit": "%"}
    ]},
    {"smiles": "CNC[C@H](O)[C@@H](O)[C@H](O)[C@H](O)CO.CNC[C@H](O)[C@@H](O)[C@H](O)[C@H](O)CO.O=C([O-])CN(CCN(CC(=O)[O-])CC(=O)O)CCN(CC(=O)[O-])CC(=O)O.[Gd+3]", "note": "[[Gd(DTPA)]^2−, gadopentetate dimeglumine]", "values": [
      {"measurement": "relaxivity r1", "setting": "[5]", "result": "3.89 ± 0.03", "unit": "mM⁻¹ s⁻¹"},
      {"measurement": "calculated conditional stability constant of the gadolinium complex", "setting": "[3]; pH = 7.4", "result": 18.14},
      {"measurement": "R1^p (t = 3days)/R1^p (t = 0 days)", "setting": "[6]", "result": 49.79, "unit": "%"},
      {"measurement": "relaxivity for the combination with human serum albumin", "setting": "human serum albumin", "result": 33.0, "unit": "mM⁻¹ s⁻¹"},
      {"measurement": "relaxivity", "setting": "[7]; 20 MHz and 298 K", "result": 3.89, "unit": "mM⁻¹ s⁻¹"},
      {"measurement": "relaxivity", "setting": "[7]; Fulvio U. et al., 1995", "result": 3.77, "unit": "mM⁻¹ s⁻¹"}
    ]}
  ]
}
